By IC50 is commonly meant the point on the concentration scale where inhibition reaches its midpoint. The low end stands for higher potency, the high end for lower potency.

The assay deals with DNA-(apurinic or apyrimidinic site) endonuclease (Homo sapiens, UniProt P27695). As to the kind of experiment: Inhibition of APE-1 (unknown origin) using double-stranded AP-site containing DNA as substrate after 30 mins by fluorescence assay.

Bounds are passed on as bounds.

DNA-(apurinic or apyrimidinic site) endonuclease, sequence (P27695 whole entry): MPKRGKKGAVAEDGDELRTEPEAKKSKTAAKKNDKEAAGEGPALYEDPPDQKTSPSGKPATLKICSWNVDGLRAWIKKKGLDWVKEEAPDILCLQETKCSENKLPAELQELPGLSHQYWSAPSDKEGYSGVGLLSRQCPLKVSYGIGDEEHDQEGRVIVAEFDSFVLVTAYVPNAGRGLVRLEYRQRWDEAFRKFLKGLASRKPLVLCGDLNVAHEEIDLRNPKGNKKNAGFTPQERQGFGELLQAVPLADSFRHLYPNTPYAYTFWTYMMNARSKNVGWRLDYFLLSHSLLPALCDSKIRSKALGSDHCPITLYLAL

`Cn1nc(-c2ccccc2)c(O)c2c(=O)[nH]c(=N)nc1-2` gave an IC50 of over 200 µM.

Source of the values: BindingDB's records for doi:10.1021/jm400568p (University of Manchester, 2013).
